The record followed here is publication PMC9043818, “Coordination complexes of zinc and manganese based on pyridine-2,5-dicarboxylic acid N-oxide: DFT studies and antiproliferative activities consideration” (RSC Advances, 2021).

Read-outs that look alike come from different tables or passages of the source.

The subject of assay [1] is human breast cancer cells MCF-7. The assay can be described thus: MTT antiproliferative assay, MCF-7. To be noted: mean ± SD. The format is cell-based. Here is the method: (§1) Human breast cancer cells MDA-MD-231 (ATCC HTB-26), human breast cancer cells MCF-7 (ATCC HTB-22), human cervix epithelial carcinoma HeLa (ATCC CCL-2), human colon cancer cell line HT-29 (ATCC HTB-38), mouse neuroblastoma cell line Neuro-2a (ATCC CCL-131) and mouse fibroblast L-929 cell line (ATCC CCL-1) were obtained from the American Type Culture Collection (ATCC; Manassas, VA, USA) and cultured at 37 °C in a humidified atmosphere of 5% CO2 in air. HeLa cells were cultured in Dulbecco's Modified Eagle's Medium (DMEM) with 0.1 mM nonessential amino acids, 2 mM L-glutamine, 1.0 mM sodium pyruvate and 5% fetal bovine serum, at 37 °C in an atmosphere of 5% CO2. Cells were plated in 96-well sterile plates at a density of 1 × 10^4 cells per well in 100 μL of medium and incubated for 24 h. Also MDA-MD-231, HT-29, MCF-7 and Neuro-2a were cultured in DMEM containing 10% fetal bovine serum, 100 units per ml of penicillin and 100 μg ml^−1 of streptomycin. L-929 cells were cultured in RPMI-1640 medium containing 10% fetal bovine serum, 100 units per ml of penicillin and 100 μg ml^−1 of streptomycin.
(§2) Complexes 1–3 ([Mn2(pydco)2(bpy)2(H2O)2]·2H2O (1), [Zn(bpy)(Hpydco)2] (2) and [Zn(bpy)Cl(Hpydco)]·2H2O (3)) were screened for antiproliferative activity against human breast cancer cells (MDA-MD-231), human cervix epithelial carcinoma (HeLa), human colon cancer cell line (HT-29), human breast cancer cells (MCF-7), mouse neuroblastoma cell line (Neuro-2a) and mouse fibroblast L-929 cell line using cisplatin as a comparative standard. Cell viability was evaluated by a colorimetric method based on the tetrazolium salt MTT ([3-(4,5-dimethylthiazol-2-yl)-2,5-diphenyltetrazolium bromide]), which is reduced by living cells to yield purple formazan crystals. Cells were seeded in 96-well plates at a density of 2–5 × 10^4 cells of MDA-MD-231, MCF-7, HeLa, HT-29, Neuro-2a and L-929 per well in 200 μL of culture medium and left to incubate overnight for optimal adherence. After careful removal of the medium, 200 μL of a dilution series of the complexes in fresh medium were added and incubation was performed at 37 °C/5% CO2 for 72 h. Complexes 1–3 were first solubilized in DMSO, diluted in medium and added to the cells in final concentrations between 20 nM and 200 μM. […] Cisplatin was first solubilized in saline and then added at the same concentrations used for the other complexes. At the end of the incubation period, the complexes were removed, and the cells were incubated with 200 μL of MTT solution (500 μg ml^−1). After 3–4 h at 37 °C/5% CO2, the medium was removed, and the purple formazan crystals were dissolved in 200 μL of DMSO by shaking. The cell viability was evaluated by measurement of the absorbance at 570 nm by using a STAT FAX-2100 microplate reader (Awareness Technology, Palm City, FL, USA). The cell viability was calculated by dividing the absorbance of each well by that of the control wells (cells treated with medium containing 1% DMSO). Each experiment was repeated at least three times and each point was determined in at least three replicates.
(§3) IC50 values are expressed as mean ± standard deviation (SD) from at least three independent experiments. Statistical tests including One way ANOVA, Tukey multiple comparison or unpaired Student's t-tests were performed using SPSS, ver.17 software. A p value of less than 0.05 was considered as significant.
On the technique in general: Tetrazolium assays rely on reduction of a dye to a coloured formazan, in cell work by metabolically active cells.

Assay [2] has as its system human breast cancer cells MDA-MD-231. Put plainly: MTT antiproliferative assay, MDA-MD-231. The format is cell-based. The note with it: 72 h incubation, mean ± SD. The protocol: as §1, §2, §3
Assay [3] concerns human colon cancer cell line HT-29. Put plainly: MTT antiproliferative assay, HT-29. It counts as cell-based. The note with it: mean ± SD. The protocol: as §1, §2, §3
The subject of assay [4] is human cervix epithelial carcinoma HeLa. The assay can be described thus: MTT antiproliferative assay, HeLa. The format is cell-based. The note with it: 72 h incubation, mean ± SD. The protocol: as §1, §2, §3
In assay [5] the test system is mouse neuroblastoma cell line Neuro-2a. Put plainly: MTT antiproliferative assay, Neuro-2a. The format is cell-based. The note with it: 72 h incubation, mean ± SD. Here is the method:
as §1, §2, §3

In assay [6] the test system is mouse fibroblast L-929 cell line. The assay can be described thus: MTT assay, normal cell line L929. It counts as cell-based. To be noted: IC50 > 100 μM considered inactive, read-out: IC50 ± SD L929. The protocol: as §1, §2, §3
Assay [7] concerns MDA-MB-231 cancer cell line. The assay can be described thus: Apoptosis assay by flow cytometry (Annexin V-FITC/PI). The format is cell-based, human. To be noted: for Apoptotic cells (%) / Late apoptotic/necrotic cells (%) / Necrotic cells (%) / Vital cells (%): MDA-MD-231, 24 h; for Apoptotic cells (%) / Late apoptotic/necrotic cells (%) / Necrotic cells (%) / Vital cells (%) / induction of apoptosis (flow cytometry): concentration close to the IC50; for induction of apoptosis (flow cytometry): MDA-MB-231, 24 h; for population of apoptotic cell, fold higher than cisplatin: at the same concentration as cisplatin. The protocol:
In order to study in which way 1–3 produced the cellular death (necrosis or apoptosis) studies of flow cytometry were performed on the complexes and cisplatin as a reference. Four areas in the diagrams stand for necrotic cells (Q1, low Annexin V-FITC and high PI signal, left square on the top), late apoptosis or necrosis cells (Q2, high Annexin V-FITC and high PI signal, right square on the top), live cells (Q3, low Annexin V-FITC and low PI signal, left square at the bottom), apoptosis cells (Q4, high Annexin V-FITC and low PI signal, right square at the bottom), respectively.
(In general: Flow cytometry measures light scatter and fluorescence of single cells or particles in a stream.)

Assay [8] has as its system MDA-MB-231 breast cancer cells. The assay can be described thus: TUNEL assay (dUTP-FITC, confocal microscopy). The format is cell-based, human. To be noted: MDA-MB-231, 24 h, vs 0.3% DMSO controls. Here is the method:
Analysis of apoptosis for 2 and 3 by cytometry using TUNEL assay. Also, apoptosis was detected using an in situ cell death detection kit (Boehringer Mannheim Corp., Indianapolis, IN) as described by Narla et al. and Zhu et al. (Narla et al., 2000;[42] Zhu et al., 1998 (ref. [43])). Cells were incubated with 1–3 in 0.3% DMSO or 1 : […], permeabilized and incubated with the reaction mixture containing TdT- and FITC-conjugated dUTP, and counterstained with propidium iodide. Cells were transferred to slides and viewed with a confocal laser scanning microscope (Bio-Rad MRC 1024) mounted on a Nikon Eclipse E800 series upright microscope as reported previously (Narla et al., 2000;[42] Zhu et al., 1998 (ref. [43])).

Assay [9] concerns MDA-MD-231, MCF-7, HeLa, HT-29, Neuro-2a and L-929 cell lines. The assay can be described thus: MTT assay, range over all cell lines. The note with it: 72 h, all six cell lines, read-out: IC50 values, span over all cell lines. It counts as cell-based. Here is the method: Human breast cancer cells MDA-MD-231 (ATCC HTB-26), human breast cancer cells MCF-7 (ATCC HTB-22), human cervix epithelial carcinoma HeLa (ATCC CCL-2), human colon cancer cell line HT-29 (ATCC HTB-38), mouse neuroblastoma cell line Neuro-2a (ATCC CCL-131) and mouse fibroblast L-929 cell line (ATCC CCL-1) were obtained from the American Type Culture Collection (ATCC; Manassas, VA, USA) and cultured at 37 °C in a humidified atmosphere of 5% CO2 in air. HeLa cells were cultured in Dulbecco's Modified Eagle's Medium (DMEM) with 0.1 mM nonessential amino acids, 2 mM L-glutamine, 1.0 mM sodium pyruvate and 5% fetal bovine serum, at 37 °C in an atmosphere of 5% CO2. […]
Complexes 1–3 ([Mn2(pydco)2(bpy)2(H2O)2]·2H2O (1), [Zn(bpy)(Hpydco)2] (2) and [Zn(bpy)Cl(Hpydco)]·2H2O (3)) were screened for antiproliferative activity against human breast cancer cells (MDA-MD-231), human cervix epithelial carcinoma (HeLa), human colon cancer cell line (HT-29), human breast cancer cells (MCF-7), mouse neuroblastoma cell line (Neuro-2a) and mouse fibroblast L-929 cell line using cisplatin as a comparative standard. Cell viability was evaluated by a colorimetric method based on the tetrazolium salt MTT ([3-(4,5-dimethylthiazol-2-yl)-2,5-diphenyltetrazolium bromide]), which is reduced by living cells to yield purple formazan crystals. […]

[10] abbreviates: experiment for 2 (Table 4), 2 and cisplatin at the same concentration.
Where [11] appears, read: experiment for 3 (Table 5), 3 and cisplatin at the same concentration, MDA-MB-231.
[12] abbreviates: Homo sapiens, MCF7, 72 h incubation.
The mark [13] stands for this setting: Homo sapiens, HT-29, 72 h incubation.
The mark [14] stands for this setting: Mus musculus, L929, 72 h incubation.

A word on the IC50: it is the midpoint of a concentration-inhibition curve. Consider `N.N.[Cl][Pt][Cl]` [Cisplatin, cisplatin, reference compound], for which the half-inhibitory concentration (IC50) came to 5.94 ± 1.47 µM in [1] (72 h incubation); 24.7 ± 4.71 µM in assay [2]; 19.3 ± 3.46 µM in [3] (72 h incubation); 0.45 ± 0.13 µM in assay [4]; 103 ± 9.8 µM in [5]; 0.7 ± 0.2 µM in [6] (72 h incubation). For the same compound, the “population of apoptotic cell (apoptotic + late apoptotic)” value in [7] (setting [10]) stood at 65.28%; in [7] (setting [11]) it was 35.8%. In addition, the “Apoptotic cells (%)” value in assay [7] (experiment for 2) is 34.65%; in assay [7] (experiment for 3), 15.80%. Moreover, the “Late apoptotic/necrotic cells (%)” value in [7] (experiment for 2) is listed as 30.63%; in [7] (experiment for 3), 20.00%. Moreover, the “Necrotic cells (%)” value in assay [7] (experiment for 2) was determined as 0.98%; in [7] (experiment for 3) it was 3.20%. Also, the entries for the “Vital cells (%)” value in assay [7] (experiment for 2) and in assay [7] (experiment for 3) were 33.74% and 61.00%, respectively.
On to `O=C(O)c1ccc(C(=O)O)[n+]([O-])c1` [Complex H2pydco, pyridine-2,5-dicarboxylic acid N-oxide], for which the IC50 was 57.9 ± 5.33 µM in [1] (setting [12]); 45.7 ± 4.75 µM in assay [2] (Homo sapiens); 58.9 ± 5.01 µM in assay [3] (setting [13]); 67.1 ± 5.45 µM in assay [4] (Homo sapiens, HeLa); over 100 µM in assay [5] (mouse/rat NG108-15, N2a); over 100 µM in assay [6] (setting [14]).
For the compound [Zn(bpy)Cl(Hpydco)]·2H2O [Complex 3], the IC50 in [1] (72 h incubation) is 17.9 ± 2.66 µM; in assay [2], 9.18 ± 2.25 µM; in assay [3] (72 h incubation), 14.6 ± 3.55 µM; in assay [4], 37.6 ± 4.61 µM; in assay [5] it was 87.7 ± 6.93 µM; in assay [6] (72 h incubation), over 100 µM. In assay [9], the IC50 is 5.94 to 100 µM. In addition, the “induction of apoptosis (flow cytometry)” value in assay [7] is given as “could induce apoptosis”. For the same compound, the “population of apoptotic cell, fold higher than cisplatin” value in assay [7] (MDA-MB-231) was about 1.8 fold. Also, the “population of apoptotic cell (apoptotic + late apoptotic)” value in [7] (setting [11]) was 63.3%. Moreover, the “Apoptotic cells (%)” value in assay [7] (experiment for 3) is on record as 4.30%. Also, in assay [7] (experiment for 3), the “Late apoptotic/necrotic cells (%)” value turned out to be 59.00%. In addition, the “Necrotic cells (%)” value in assay [7] (experiment for 3) came out at 4.70%. Also, in assay [7] (experiment for 3), the “Vital cells (%)” value is reported as 32.00%. Moreover, the “induction of apoptosis (TUNEL, apoptotic nuclei)” value in [8] was “induce apoptosis”.
`c1ccc(-c2ccccn2)nc1` [bpy, 2,2′-bipyridine, reference compound]: the IC50 in assay [1] (setting [12]) was 51.3 ± 4.78 µM; in assay [2] (Homo sapiens) it was 24.9 ± 1.98 µM; in assay [3] (setting [13]), 67.8 ± 5.54 µM; in assay [4] (Homo sapiens, HeLa), 46.5 ± 4.03 µM; in assay [5] (mouse/rat NG108-15, N2a) it was 97.3 ± 8.7 µM; in [6] (setting [14]), over 100 µM.
For the compound [Zn(bpy)(Hpydco)2] [Complex 2], the IC50 in [1] (72 h incubation) was 15.6 ± 3.24 µM; in assay [2] it was 5.94 ± 1.98 µM; in [3] (72 h incubation), 17.3 ± 2.57 µM; in assay [4] it was 41.2 ± 5.07 µM; in assay [5] it was 81.2 ± 9.28 µM; in assay [6] (72 h incubation), over 100 µM. For the same compound, the IC50 in [9] was 5.94 to 100 µM. Also, the “induction of apoptosis (flow cytometry)” value in assay [7] is on record as “could induce apoptosis”. In assay [7] (MDA-MB-231), the “population of apoptotic cell, fold higher than cisplatin” value is listed as about 1.2 fold. Besides, the “population of apoptotic cell (apoptotic + late apoptotic)” value in [7] (setting [10]) came out at 79.45%. For the same compound, the “Apoptotic cells (%)” value in assay [7] (experiment for 2) was 43.91%. In addition, the “Late apoptotic/necrotic cells (%)” value in assay [7] (experiment for 2) was 35.54%. The “Necrotic cells (%)” value in assay [7] (experiment for 2) is 0.82%. Also, the “Vital cells (%)” value in assay [7] (experiment for 2) was determined as 19.73%. In assay [8], the “induction of apoptosis (TUNEL, apoptotic nuclei)” value is given as “induce apoptosis”.
Consider “[Mn2(pydco)2(bpy)2(H2O)2]·2H2O [Complex 1]”, for which the IC50 was 56.6 ± 7.78 µM in assay [1] (72 h incubation); 28.9 ± 2.47 µM in [2]; 57.9 ± 4.71 µM in assay [3] (72 h incubation); 39.2 ± 2.98 µM in assay [4]; 79.5 ± 8.44 µM in [5]; over 100 µM in assay [6] (72 h incubation).
